Experiments:
[1] = Ratio of kcat/km of PKS TEs assessed as hydrolysis of epothilone
[2] = Activity at PKS TEs assessed as hydrolysis of pimaricin
[3] = Ratio of kcat/km of PKS TEs assessed as hydrolysis of 6-deoxyerythronolide-B
[4] = Activity at PKS TEs assessed as hydrolysis of epothilone
[5] = Ratio of kcat/km of PKS TEs assessed as hydrolysis of pimaricin

Structure (SMILES)	kcat/Km [1] [M⁻¹ s⁻¹]	Km [2] [µM]	kcat [2] [s⁻¹]	kcat/Km [3] [M⁻¹ s⁻¹]	Km [4] [µM]	kcat [4] [s⁻¹]	kcat/Km [5] [M⁻¹ s⁻¹]
CC(=O)NCCSC(=O)CCCCCCNC(=O)OC(C)(C)C	75.1	800	0.02	1.47	400	0.0303	23.3
CC(=O)NCCSC(=O)[C@@H](C)NC(=O)OC(C)(C)C	12.5	–	–	0.5	–	–	–
CC(=O)NCCSC(=O)[C@H](C)NC(=O)OC(C)(C)C	91.3	–	–	0.88	–	–	–
CC(=O)NCCSC(=O)CCNC(=O)c1ccccc1	24.2	–	–	7.75	–	–	1.14

More lines, now with the values ahead:

kcat/Km [1] [M⁻¹ s⁻¹]	Km [2] [µM]	kcat [2] [s⁻¹]	kcat/Km [3] [M⁻¹ s⁻¹]	Km [4] [µM]	kcat [4] [s⁻¹]	kcat/Km [5] [M⁻¹ s⁻¹]	Structure (SMILES)
145	–	–	7	–	–	1.29	CC(=O)NCCSC(=O)CNC(=O)OC(C)(C)C
38.8	–	–	0.8	1300	0.0517	–	CC(=O)NCCSC(=O)CNC(=O)[C@@H](C)NC(=O)OC(C)(C)C
110	–	–	0.39	2900	0.32	–	CC(=O)NCCSC(=O)CNC(=O)[C@H](C)NC(=O)OC(C)(C)C

— ChEMBL document CHEMBL1153262, “Polyketide synthase thioesterases catalyze rapid hydrolysis of peptidyl thioesters” (Bioorg Med Chem Lett, 2009)
